This series can be described thus: solvent given as SMILES.

Take `CCN1\C(=C/C=C/C=C/C2=[N+](CC)c3ccc4ccccc4c3C2(C)C)C(C)(C)c2c1ccc1ccccc21`: the absorption maximum (in C1CCOC1) was 684 nm; the absorption maximum (in CC#N) was 677 nm; the absorption maximum (in CC(C)=O) was 680 nm; the absorption maximum (in CCO) stood at 682 nm; the absorption maximum (in CN(C)C=O) is given as 683 nm; the absorption maximum (in CO) stood at 678 nm. In addition, the absorption maximum is, setting by setting: (in CS(C)=O) 686 nm; (in ClCCl) 693 nm.
For `COC(=O)/C(C#N)=c1\s/c(=c2/s/c(=C(/C#N)C(=O)OC)c3cc(-c4ccc(F)cc4)sc23)c2sc(-c3ccc(F)cc3)cc12`, the absorption maximum (in Cc1ccccc1) worked out at 602 nm.
In turn, `COc1ccc(-c2cccc3ncc(-c4ccc(C#N)cc4)n23)cc1` displayed an absorption maximum (in ClCCl) of 329 nm.
For `CC(C)(C)c1ccc(C2=C(c3ccc(C(C)(C)C)cc3)[Si](c3ccccc3)(c3ccccc3)c3ccccc32)cc1`, under “in C1CCOC1”, the absorption maximum was found to be 341 nm.
Regarding `c1cc2c3c(cccc3c1)-c1c-2ccc2ccc3ccccc3c12`, the absorption maximum (in CCCCCCC) was 408 nm.
`C1=Cc2ccc3ccccc3c2N(c2ccccc2)B1c1ccccc1` showed an absorption maximum (in C1CCCCC1) of 364 nm.
`CN(C)c1ccc(-c2nc(-c3ccccc3)n3ccccc23)cc1`: where the note is “in ClC(Cl)Cl”, the absorption maximum was determined as 314 nm.
With `Cc1nc2c(ccc3c2sc(/C=C/c2ccc(N(c4ccccc4)c4ccccc4)cc2)[n+]3C)s1`, the absorption maximum was 522 nm (in CO) and 561 nm (in ClC(Cl)Cl).
`O=[N+]([O-])c1ccc(-n2c3ccccc3c3c2c2ccccc2n3-c2ccccc2)cc1` returned an absorption maximum (in Cc1ccccc1) of 418 nm.
The molecule `CCN1C(=O)C(C2C(=O)c3c4ccccc4cc4cc5ccccc5c2c34)C(=O)N(CC)C1=S` (stereo not drawn) had an absorption maximum (in ClCCl) of 532.11 nm.
As for `Cc1ccc(-c2nc(-c3ccccc3O)[nH]c2-c2ccc(C)cc2)cc1`, under “in CO”, the absorption maximum was 320 nm.
Regarding `O=c1cc2cc(O)c3cccc4ccc(o1)c2c43`, the absorption maximum (in CC1CCCO1) stood at 469 nm.
`Cc1nc2c(ccc3c2sc(/C=C/c2cc4c5c(c2)CCCN5CCC4)[n+]3C)s1` had an absorption maximum (in CO) of 574 nm and an absorption maximum (in ClC(Cl)Cl) of 595 nm.
For the molecule `N#Cc1c(-n2nnc3c2-c2ccccc2CN(C(=O)CCN)c2ccccc2-3)n([C@H]2C[C@H](O)[C@@H](CO)O2)c2ncnc(N)c12`, under “in CO”, the absorption maximum turned out to be 290 nm.
As to `Cc1cccc(Nc2ccccc2C(=O)O)c1C`, the absorption maximum by setting is: (in CC#N) 351 nm; (in CCOC(C)=O) 351 nm; (in CO) 345 nm; (in ClC(Cl)Cl) 357 nm.
For the setting “in CO”, `Cc1cc(C)c(B(c2cc(-c3ccc(C(F)(F)F)cc3)sc2-c2sc(-c3ccc(C(F)(F)F)cc3)cc2P(=O)(c2ccccc2)c2ccccc2)c2c(C)cc(C)cc2C)c(C)c1` returned an absorption maximum of 389 nm.
Where the note is “in CO”, `COc1ccc(-c2nc(-c3ccccc3OC)[nH]c2-c2ccc(OC)cc2)cc1` displayed an absorption maximum of 299 nm.
For `CC(C)(C)c1ccc2c(c1)c1cc(C(C)(C)C)ccc1n2-c1c(C#N)c(-n2c3ccc(C(C)(C)C)cc3c3cc(C(C)(C)C)ccc32)c(-n2c3ccc(C(C)(C)C)cc3c3cc(C(C)(C)C)ccc32)c(-n2c3ccc(C(C)(C)C)cc3c3cc(C(C)(C)C)ccc32)c1-n1c2ccc(C(C)(C)C)cc2c2cc(C(C)(C)C)ccc21`, the absorption maximum (in Cc1ccccc1) is 427.95 nm.
In the case of `CCCCCCCCCCCCOc1cc2c3cc(OCCCCCCCCCCCC)c(OCCCCCCCCCCCC)cc3c3c(cc(OCCCCCCCCCCCC)c4nc5cc(C#Cc6ccc(CCCCCCCCCC)cc6)c(C#Cc6ccc(CCCCCCCCCC)cc6)cc5nc43)c2cc1OCCCCCCCCCCCC`, the absorption maximum (in ClC(Cl)Cl) was 482 nm.
For the setting “in ClC(Cl)Cl”, `N#Cc1nc(N(Cc2ccc(I)cc2)Cc2ccc(I)cc2)c(C#N)nc1N(Cc1ccc(I)cc1)Cc1ccc(I)cc1` returned an absorption maximum of 484 nm.
`CCCN1c2ccccc2Sc2cc(/C=C\c3cc(=O)oc4cc(NC(=O)OCC)ccc34)ccc21` displayed an absorption maximum (in ClC(Cl)Cl) of 422 nm.
`CC1=CC(C)=[N+]2C1=C(c1ccc(C(=O)OC3C[C@@H]4CC[C@]3(C)C4(C)C)cc1)c1c(C)cc(C)n1[B-]2(F)F` (stereo partly drawn) showed an absorption maximum (in Cc1ccccc1) of 506 nm.
Take `COc1ccc(-n2nc(C#N)c(N3CCCCC3)n2)cc1`: where the note is “in CC#N”, the absorption maximum amounted to 340 nm.
As for `O=c1oc2ccccc2cc1-c1ccc([N+](=O)[O-])cc1`, the absorption maximum by setting is: (in C1CCOC1) 331 nm; (in CC#N) 336 nm; (in CS(C)=O) 344 nm; (in ClC(Cl)Cl) 341 nm.
Consider `CC(C)(C)c1ccc(C2=C(c3ccc(C(C)(C)C)cc3)C(c3ccc(C(C)(C)C)cc3)=[N+]3C2=C(c2ccccc2)c2c(-c4ccc(C(C)(C)C)cc4)c(-c4ccc(C(C)(C)C)cc4)c(-c4ccc(C(C)(C)C)cc4)n2[B-]3(F)F)cc1`, for which the absorption maximum worked out at 589 nm (in C1CCCCC1); 585 nm (in C1CCOC1); 563 nm (in CC#N); 591 nm (in Cc1ccccc1); 579 nm (in ClCCl).
Consider `Cc1cc(C)c(B(c2ccccc2N(c2ccccc2)c2ccccc2)c2c(C)cc(C)cc2C)c(C)c1`, for which the absorption maximum (in Cc1ccccc1) is 415 nm.
Molecule `COc1cc(-c2cnc(-c3ccncc3)o2)cc(OC)c1OC` returned an absorption maximum (in ClCCl) of 332 nm.
The molecule `c1ccc2c(-n3c(-c4ccc(-c5ccc(-c6nc7c8ccccc8c8ccccc8c7n6-c6cccc7ccccc67)c6ccccc56)c5ccccc45)nc4c5ccccc5c5ccccc5c43)cccc2c1` had an absorption maximum (in ClCCl) of 334 nm.
In turn, `CCOC(=O)c1cc(C(=O)OCC)c2cc(OC)ccc2n1` yielded an absorption maximum (in CCO) of 355 nm.
In the case of `CCN(CC)c1ccc2cc(-c3csc(NC(C)=O)c3C#N)c(=O)oc2c1`, the absorption maximum was determined as 404 nm (in CO), 394 nm (in CS(C)=O) and 402 nm (in Cc1ccccc1).
Consider `COc1ccccc1-c1nc(-c2ccc(C(F)(F)F)cc2)n(-c2ccc(C)cc2)c1-c1ccccc1OC`, for which the absorption maximum reads like this: (in CC(C)O) 285 nm; (in CCCCCC) 285 nm; (in CO) 284 nm; (in CS(C)=O) 286 nm; (in ClCCl) 286 nm.
`O=c1c(-c2ccc(O)cc2)coc2cc(O)cc(O)c12`: the absorption maximum by setting is: (in CC#N) 360 nm; (in CCO) 340 nm.
The molecule `CCOC(=O)c1cc(C(=O)OCC)c2cc(C)ccc2n1` displayed an absorption maximum (in CCO) of 330 nm.
Under “in C1CCOC1”, `CCCCOc1cc2ccccc2c2c1oc1cc3ccccc3cc12` came in with an absorption maximum of 351 nm.
Molecule `CCCCN1C(=O)c2cc(Oc3ccc(C(C)(C)C)cc3)c3c4c(Oc5ccc(C(C)(C)C)cc5)cc5c6c(cc(Oc7ccc(C(C)(C)C)cc7)c(c7c(Oc8ccc(C(C)(C)C)cc8)cc(c2c37)C1=O)c64)C(=O)N(CCCC)C5=O` gave an absorption maximum (in ClC(Cl)Cl) of 582 nm.
`N#Cc1c(-n2c3ccc(Br)cc3c3cc(Br)ccc32)c(C#N)c(-n2c3ccc(Br)cc3c3cc(Br)ccc32)c(-n2c3ccc(Br)cc3c3cc(Br)ccc32)c1-n1c2ccc(Br)cc2c2cc(Br)ccc21` registered an absorption maximum (in Cc1ccccc1) of 374 nm.
`C=Cc1cc(OC)cc(OC)c1` registered an absorption maximum (in C1CCCCC1) of 299 nm.
On to `C(=C\c1ccc(N(c2ccccc2)c2ccccc2)cc1)/c1ccc(-c2cc(-c3ccccn3)nc(-c3ccccn3)c2)cc1`, for which the absorption maximum (in C1CCOC1) was determined as 382 nm; the absorption maximum (in C1COCCO1) is recorded as 382 nm; the absorption maximum (in CC#N) is recorded as 379 nm; the absorption maximum (in CCO) is on record as 379 nm; the absorption maximum (in ClCCl) is 383 nm.
In the case of `O=C1c2cccc3c(-n4c5ccccc5c5ccccc54)ccc(c23)C(=O)N1c1ccccc1`, the absorption maximum was determined as 408 nm (in C1CCOC1), 403 nm (in CCCCCC), 405 nm (in ClC(Cl)Cl) and 419 nm (in ClCCl).
With `N#Cc1c(N2CCCCC2)cc(-c2ccccc2)c2c1Cc1ccccc1-2`, the absorption maximum (in C1CCOC1) stood at 358 nm.
Molecule `CCC1=C(C2=C(C3=C(CC)S(=O)(=O)c4cc(-c5ccc(C)s5)ccc43)C(F)(F)C(F)(F)C2(F)F)c2ccc(-c3ccc(C)s3)cc2S1(=O)=O` gave an absorption maximum (in C1COCCO1) of 374 nm.
Regarding `CCOC(=O)c1c(-c2cc3c(ccc4ccccc43)oc2=O)nn(-c2cccc(Cl)c2)c1C(=O)OCC`, the absorption maximum (in ClCCl) stood at 361 nm.
`COc1ccc2cc(-c3ccc(-c4cc5ccc(OC)cc5oc4=O)cc3)c(=O)oc2c1` yielded an absorption maximum (in ClC(Cl)Cl) of 362 nm.
For the molecule `CCCCOc1c(C=C2C=Cc3ccccc3N2C)c(=O)c1=O`, the absorption maximum (in CCO) was determined as 465 nm.
For the molecule `CCCCNc1nc(/C=C/c2ccccc2)[n+]([O-])c2c1CCCC2`, the absorption maximum (in ClCCl) was 415 nm.
`CN(C)c1ccc(C2=[N+]3C(=Nc4c5ccccc5c(-c5ccc(N(C)C)cc5)n4[B-]3(F)F)c3ccccc32)cc1` displayed an absorption maximum (in ClCCl) of 794 nm.
In the case of `CN(C)c1ccc(C=C/C=C/C=C/c2ccc(C#N)cc2)cc1`, the absorption maximum reads like this: (in C1CCOC1) 420 nm; (in CC#N) 418 nm; (in CCCC#N) 422 nm; (in CCCCCC) 412 nm; (in CCCCOCCCC) 416 nm; (in CCO) 418 nm. This molecule also had an absorption maximum (in CCOCC) of 416 nm.
Molecule `F[B-]1(F)n2c(-c3ccccc3)cc(-c3cccs3)c2N=C2C(c3cccs3)=CC(c3ccccc3)=[N+]21` registered an absorption maximum (in ClCCl) of 683 nm.
For `Cc1ccc(-n2c3ccccc3c3cc(C=C(C#N)C#N)ccc32)cc1`, the absorption maximum is, setting by setting: (in C1CCOC1) 407 nm; (in CC#N) 402 nm; (in CC(C)=O) 402 nm; (in CCOC(C)=O) 400 nm; (in CO) 402 nm; (in CS(C)=O) 407 nm. The absorption maximum reads like this: (in Cc1ccccc1) 406 nm; (in ClC(Cl)Cl) 413 nm.
`CC(C)[Si](C#Cc1c2nsnc2c(C#C[Si](C(C)C)(C(C)C)C(C)C)c2nc3c4ccccc4c(=O)c4ccccc4c3nc12)(C(C)C)C(C)C` registered an absorption maximum (in ClCCl) of 561 nm.
As to `CCN(CC)c1ccc2cc(C#N)/c(=N\C(=O)c3ccc(C)cc3)oc2c1`, the absorption maximum is given as 430 nm (in CCO) and 436 nm (in ClCCl).

(Values after the Deep4Chem optical property database.)
